Source: article PMC12365235, “Molecular mechanisms of thiazide-like diuretics-mediated inhibition of the human Na-Cl cotransporter” (Nature Communications, 2025)
Entries after “also recorded” stand apart in the source; their conditions may differ.

Assays:
[1] = design: method as in PMID 354839; details: chlorthalidone dose 2- to 4-fold over the currently recommended level; cited from earlier work
[2] = system: hNCC(V229M); test: 125I- uptake assay, hNCC(V229M) variant; format: cell-based, human; details: V229M polymorphism
Procedure: (§1) HEK293S cell lines, cultured in 293 Freestyle medium (Life Technologies; plus 10% fetal bovine serum), stably expressing hNCC and its variants were generated following published protocols. Cells were transfected using Lipofectamine 3000 (Invitrogen) with a pSBbi-RP-based plasmid containing hNCC or its variants and the SB100X vector. Puromycin (2 μg/mL; Gemini Bio-Products) was used for selection of stable cell lines.
To prepare for the uptake experiment, cells were plated at 0.5 × 10^6 cells/well in 24-well plates one day in advance. To activate NCC, cells were treated with a chloride-free hypotonic solution composed of 67.5 mM sodium-, 2.5 mM potassium-, 0.25 mM magnesium-, and 0.25 mM calcium-gluconate, as well as 7.5 mM HEPES pH 7.4 (buffered using Tris) at 37 °C for 10 min[72]. After the activation step, the experiments were carried out at room temperature. Ten minutes before the start of ^125I^− uptake, 70 μM Bumetanide (Thermo Scientific Chemicals) and 100 μM 4,4′-diisothiocyanatostilbene-2,2′-disulfonic acid (DIDS; Sigma) were added to suppress background iodide uptake activity. Indicated thiazide diuretics were also added to the indicated concentrations 10 min before the start of ^125I^− uptake. […] Cells lysed using 1% sodium dodecyl sulfate (SDS) were analyzed by scintillation counting. […]

[3] = target: T1, hNCC(H234N) (Homo sapiens, UniProt P55017, H234N); test: 125I- uptake assay, hNCC(H234N) variant; format: cell-based; details: 100 μM polythiazide
T1 construct: expressed in transfected cells
T1 sequence (P55017 1-1021 H234N): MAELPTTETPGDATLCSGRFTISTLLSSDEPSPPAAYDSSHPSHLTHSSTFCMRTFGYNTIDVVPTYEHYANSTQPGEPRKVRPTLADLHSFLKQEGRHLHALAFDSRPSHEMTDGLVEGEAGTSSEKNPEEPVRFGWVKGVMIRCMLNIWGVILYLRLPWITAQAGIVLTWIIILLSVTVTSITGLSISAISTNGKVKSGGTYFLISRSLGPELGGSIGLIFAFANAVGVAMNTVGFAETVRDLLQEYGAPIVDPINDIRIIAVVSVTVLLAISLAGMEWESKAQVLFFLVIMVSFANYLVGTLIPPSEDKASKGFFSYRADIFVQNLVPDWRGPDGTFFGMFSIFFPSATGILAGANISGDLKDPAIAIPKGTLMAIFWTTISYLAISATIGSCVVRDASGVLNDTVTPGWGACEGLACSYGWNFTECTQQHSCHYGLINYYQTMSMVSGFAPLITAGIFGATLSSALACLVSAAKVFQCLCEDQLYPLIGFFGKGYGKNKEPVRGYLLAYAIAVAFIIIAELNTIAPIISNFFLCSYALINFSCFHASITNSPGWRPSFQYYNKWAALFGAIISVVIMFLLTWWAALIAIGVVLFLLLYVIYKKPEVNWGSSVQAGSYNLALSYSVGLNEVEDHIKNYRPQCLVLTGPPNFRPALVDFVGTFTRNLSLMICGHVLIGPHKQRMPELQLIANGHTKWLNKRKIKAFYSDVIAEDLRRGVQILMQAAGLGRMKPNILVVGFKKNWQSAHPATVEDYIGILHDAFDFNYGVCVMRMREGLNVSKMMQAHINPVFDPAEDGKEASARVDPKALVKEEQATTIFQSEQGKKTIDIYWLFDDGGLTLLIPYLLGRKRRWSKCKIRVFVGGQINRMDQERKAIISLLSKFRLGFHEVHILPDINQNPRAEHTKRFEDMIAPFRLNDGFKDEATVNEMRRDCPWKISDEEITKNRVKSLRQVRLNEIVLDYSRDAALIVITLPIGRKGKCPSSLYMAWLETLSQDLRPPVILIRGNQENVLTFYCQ
Procedure: as §1
To prepare for the uptake experiment, cells were plated at 0.5 × 10^6 cells/well in 24-well plates one day in advance. To activate NCC, cells were treated with a chloride-free hypotonic solution composed of 67.5 mM sodium-, 2.5 mM potassium-, 0.25 mM magnesium-, and 0.25 mM calcium-gluconate, as well as 7.5 mM HEPES pH 7.4 (buffered using Tris) at 37 °C for 10 min[72]. After the activation step, the experiments were carried out at room temperature. Ten minutes before the start of ^125I^− uptake, 70 μM Bumetanide (Thermo Scientific Chemicals) and 100 μM 4,4′-diisothiocyanatostilbene-2,2′-disulfonic acid (DIDS; Sigma) were added to suppress background iodide uptake activity. Indicated thiazide diuretics were also added to the indicated concentrations 10 min before the start of ^125I^− uptake. […] Cells lysed using 1% sodium dodecyl sulfate (SDS) were analyzed by scintillation counting.

NS(=O)(=O)c1cc(C2(O)NC(=O)c3ccccc32)ccc1Cl (stereo not drawn) [chlorthalidone]
serum glucose and uric acid [1]: elevated levels of serum glucose and uric acid

CN1C(CSCC(F)(F)F)Nc2cc(Cl)c(S(N)(=O)=O)cc2S1(=O)=O (stereo not drawn) [polythiazide]
fold reduction of sensitivity relative to hNCC(WT) [2]: ~ 5 fold
inhibition of transport activity [3]: fully inhibited; also recorded: completely inhibited
